Holding throughout (format): physicochemical
A short description of data set [1]: solubility in phosphate buffered saline (pH 6.5). Particulars: expressed as the free base. The source says:
An example of a drug having a crystalline highly soluble salt form is ziprasidone. Ziprasidone hydrochloride monohydrate has a solubility of about 10 μgA/mL (expressed as the free base) in phosphate buffered saline (pH 6.5), whereas the free base form has a solubility of less than about 0.2 μgA/mL under the same conditions. Thus, crystalline ziprasidone hydrochloride is a solubility-improved form relative to the crystalline free base form of drug.

A short description of data set [2]: microcentrifuge dissolution test in MFD solution. To be noted: during the initial ninety minutes. As for the experimental part: Microcentrifuge dissolution tests were performed to evaluate the hydrochloride crystalline salt form of ziprasidone to verify that it was a solubility-improved form of ziprasidone. For this test, a sufficient amount of ziprasidone hydrochloride monohydrate was added to a microcentrifuge test tube so that the concentration of ziprasidone would have been 200 μgA/mL, if all of the ziprasidone had dissolved. The tests were run in duplicate. The tubes were placed in a 37° C. temperature-controlled chamber, and 1.8 mL MFD solution at pH 6.5 and 290 mOsm/kg was added to each respective tube. The samples were quickly mixed using a vortex mixer for about 60 seconds. The samples were centrifuged at 13,000 G at 37° C. for 1 minute prior to collecting a sample. The resulting supernatant solution was then sampled and diluted 1:5 (by volume) with methanol. Samples were analyzed by high-performance liquid chromatography (HPLC) at a UV absorbance of 315 nm using a Zorbax RxC8 Reliance column and a mobile phase consisting of 55% (50 mM potassium dihydrogen phosphate, pH 6.5)/45% acetonitrile. Drug concentration was calculated by comparing UV absorbance of samples to the absorbance of drug standards. The contents of each tube were mixed on the vortex mixer and allowed to stand undisturbed at 37° C. until the next sample was taken. Samples were collected at 4, 10, 20, 40, 90, and 1200 minutes following administration to the MFD solution.
A similar test was performed with the crystalline ziprasidone free base as a control, and a sufficient amount of material was added so that the concentration of compound would have been 200 μgA/mL, if all of the ziprasidone had dissolved.
The concentrations of ziprasidone obtained in these tests were used to determine the maximum dissolved concentration of ziprasidone (“MDC90”) and the area under the concentration-versus-time curve (“AUC90”) during the initial ninety minutes.

Data set [3] is described as follows: in vitro membrane permeation test. As to the method: The ziprasidone coated crystals were evaluated in vitro using a membrane permeation test. An Accurel® PP 1E microporous polypropylene membrane was obtained from Membrana GmbH (Wuppertal, Germany). The membrane was washed in isopropyl alcohol and rinsed in methanol in a sonicating bath for 1 minute at ambient temperature, and then allowed to air dry at ambient temperature. The feed side of the membrane was then plasma-treated to render it hydrophilic by placing a sample of the membrane in a plasma chamber. The atmosphere of the plasma chamber was saturated with water vapor at a pressure of 550 mtorr. A plasma was then generated using radio frequency (RF) power inductively coupled into the chamber via annular electrodes at a power setting of 50 watts for 45 seconds. The contact angle of a drop of water placed on the surface of the plasma-treated membrane was about 40°. […]
To form the feed solution, a 1.39 mg sample of the coated crystals was weighed into the feed reservoir. […] Samples were then diluted in […] IPA and analyzed using HPLC. […]
The maximum flux of drug across the membrane (in units of mgA/cm^2-min) was determined by performing a least-squares fit to the data in Table 3 from 0 to 60 minutes to obtain the slope, multiplying the slope by the permeate volume (5 ml), and dividing by the membrane area (4.9 cm^2).

Structures can show the parent of a compound that is named as a salt.

As for `O=C1Cc2cc(CCN3CCN(c4nsc5ccccc45)CC3)c(Cl)cc2N1` [Ziprasidone Free Base, ziprasidone], the solubility result in data set [1] (listed as free base form) is “less than 0.2 μgA/mL”. Besides, in data set [2], the AUC90 (area under the concentration-versus-time curve) stood at 120 min·µgA/mL and the MDC90 (maximum dissolved concentration of ziprasidone) is 2 µgA/mL.

On to `O=C1Cc2cc(CCN3CCN(c4nsc5ccccc45)CC3)c(Cl)cc2N1` [Ziprasidone hydrochloride monohydrate, ziprasidone hydrochloride monohydrate], for which, in data set [3] (feed MFD solution 100 μgA/ml if all dissolved, permeate 60 wt % decanol in decane, 37° C., time 0 min), the “Concentration (permeate solution)” value amounted to 0.5 μgA/ml. The same compound had an Initial Flux of Ziprasidone in data set [3] (least-squares fit of Table 3 data from 0 to 60 minutes, permeate volume 5 ml, membrane area 4.9 cm^2) of 0.16 µgA/cm²·min. Also, the solubility entry in data set [1] (hydrochloride monohydrate) is reported as “about 10 μgA/mL”. In data set [2] (hydrochloride monohydrate), this compound had an AUC90 (area under the concentration-versus-time curve) of 1700 min·µgA/mL and an MDC90 (maximum dissolved concentration of ziprasidone) of 22 µgA/mL.
